Test results as given in patent publication US11229628B2, “TRPA1 and TRPV4 inhibitors and methods of using the same for organ-specific inflammation and itch” (Duke University, priority 2015, dated 2022).
“Also recorded” adds a separate entry of the source.

Columns and labels:
[1] = tested on: mouse primary keratinocytes; assay: Histamine receptor-mediated Ca++ transients in mouse primary keratinocytes (fura-2); type: cell-based
Experimental: Mouse primary keratinocytes were prepared as described in Moore et al. (Proc Natl Acad Sci USA, 2013, 110, E3225-3416). Cells were pre-treated, for 10 min with 10 μM GSK205. Then 100 μM of each, histamine, 2-Pyridylethylamine (selective activator for H1R), and 4-Methylhistamine (selective activator for H4R; both H1R and H4R known to be expressed in rodent and human keratinocytes), were applied, and fura-2 loaded keratinocytes were imaged ratiometrically, as described (Moore et al. Proc Natl Acad Sci USA, 2013, 110, E3225-3416; Li, et al. Environ Health Perspect, 2011, 119, 784-9316). Shown in blue (top curve) is the average signal of ≥75 cells. Note the robust signal for histamine, and in response to selective activator of H1R, less prominent for H4R, in keeping with previous findings on expression levels of these channels in keratinocytes.

[2] = tested on: IL-1β secretion by 1° MK; assay: IL-1β secreted by cultured keratinocytes after UVB exposure (ELISA); type: cell-based, mouse; settings: 5 μM GSK205
Experimental: Before UV irradiation, culture media was replaced with PBS. The cells were then irradiated at a dose of 50 mJ/cm^2 with UVB. 24 hours later, supernatants were assayed using IL-1β ELISA (R&D Systems, Minneapolis, Minn.).
We also tested the response of down-stream UVB effector mechanisms to GSK205 treatment in vivo.

[3] = tested on: periostin secretion by keratinocytes; assay: Periostin secretion by keratinocytes in response to histamine; type: cell-based
Text: As detailed in the Examples, secretion of periostin (93 kDa protein) by keratinocytes in response to histamine exposure is dependent on TRPV4. […] Periostin has a role in chronic allergic skin inflammation and also pathologic-fibrotic remodeling of the skin. Histamine activates TRPV4 channels via specific activation of histamine H1R-receptors in keratinocytes. This TRPV4-dependent calcium influx regulates release of periostin from keratinocytes. In terms of fibrotic tissue remodeling of organs, TRPV4 channels expressed by fibroblasts may have a role in lung fibrosis evoked by bleomycin, which may relate to fibroblasts elsewhere, including skin fibroblasts and synovial fibroblasts. Inhibitors as detailed herein may potently block TRPV4 activation in keratinocytes and also skin fibroblasts. Based on the above signaling mechanisms, this will attenuate and prevent fibrotic responses in the skin, also chronic skin-remodeling tissue responses mediated by endogenous pathogenetic mediator molecules such as periostin. As for synovia of the joint, one response to joint trauma is development of synovial fibrosis and contracture. Synoviocytes, synovial fibroblasts and infiltrating inflammatory cells may have roles in this maladaptive response, as all of these cells are known to express TRPV4. […]

[4] = UVB permeation of foot-pad skin (sunscreen test); set-up: species or system mouse; settings: topically applied; GSK205 5 mM
Experimental: The UV LED was powered with 20 mA of current, resulting in 500 μW of optical power in a circular focal spot 1.5 mm in diameter, with 70% of the total flux in a 0.5 mm beam radius. The UV optical power transmitted through the sample was detected by a Hamamatsu S127-66BR UV detector, and the output of the photodetector was measured using a Keithley 236 source measure unit. Next, the foot-pad epidermis of a mouse was measured for UV transmission by placing it on a quartz coverslip and exposure to the UV beam. The vehicle-control group was treated with the alcohol and glycerol solution only. Another control group consisted of a commercially-available SPF100 preparation sunscreen in form of a cream, which was applied similar to the vehicle-control. The data for the GSK205 and sunscreen was normalized to this control data.
To validate these finding, we tested UVB absorption in GSK205-treated paw-pad skin, and whether GSK205 thus functions as sunscreen.

With CN(CCc1ccc(Nc2nc(-c3cccnc3)cs2)cc1)Cc1ccccc1 [GSK205] the “histamine-Ca++ response” value ([1]; 10 μM GSK205 10 min pre-treatment, 100 μM histamine) was “eliminated completely”, the “Ca++ response to activation of H1R” value ([1]; 10 μM GSK205, 100 μM 2-Pyridylethylamine) was “eliminated completely” and the “Ca++ response to H4R” value ([1]; 10 μM GSK205, 100 μM 4-Methylhistamine) was “significantly attenuated”. The “UVB-induced increase in IL-1β secretion by 1° MK” value [2] was “completely eliminated; also recorded: prevention of increase in IL-1β secretion”, the “secretion of periostin by histamine-stimulated keratinocytes” value [3] was “completely eliminated” and the “UVB permeation of paw-pad skin” value [4] was “equal UVB permeation; also recorded: absence of a change in UVB permeation”.
